Source: PubChem BioAssay (NCI)
Several values for one entry are separate records, joined by “and”; a condition that tells them apart may be missing. Identical values can stand only once.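 Cultured in 96-well plates, cells were exposed to test compound for 48 hours across five concentrations. The concentration for 50% growth inhibition is given as GI50. At the TGI there is no net growth.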

Experiments:
Experiment in all cases: inhibition of tumour cell growth, NCI panel, 48 h
NCI-H226 lung = test system: NCI-H226 lung
HCC-2998 colon = test system: HCC-2998 colon
A549 NSCLC = test system: A549 NSCLC
LOX IMVI melanoma = test system: LOX IMVI melanoma
HOP-92 NSCLC = test system: HOP-92 NSCLC
MOLT-4 leukemia = test system: MOLT-4 leukemia
NCI-H522 lung = test system: NCI-H522 lung
KM12 colon = test system: KM12 colon
HCT-15 colon = test system: HCT-15 colon
SW-620 colon = test system: SW-620 colon

SMILES | GI50 (NCI-H226 lung) | TGI (NCI-H226 lung) [µM] | GI50 (HCC-2998 colon) | TGI (HCC-2998 colon) [µM] | GI50 (A549 NSCLC) | TGI (A549 NSCLC) [µM] | GI50 (LOX IMVI melanoma) | TGI (LOX IMVI melanoma) [µM] | GI50 (HOP-92 NSCLC) [µM] | TGI (HOP-92 NSCLC) | GI50 (MOLT-4 leukemia) | TGI (MOLT-4 leukemia) [µM] | GI50 (NCI-H522 lung) | TGI (NCI-H522 lung) | GI50 (KM12 colon) | TGI (KM12 colon) [µM] | GI50 (HCT-15 colon) | TGI (HCT-15 colon) [µM] | GI50 (SW-620 colon) | TGI (SW-620 colon) [µM]
Cc1ccc(S(=O)(=O)n2cc(C(=O)C(=O)Nc3ccncc3)c3ccccc32)cc1 | 8.6 µM | > 100 | 4.25 µM | > 100 | 16.5 µM | > 100 | 1.04 µM | > 100 | 0.644 | 7.01 µM | 1.77 µM | > 76.5 | 0.438 µM | 12.9 µM | 0.595 µM | > 84.6 | 0.555 µM | > 100 | 1.23 µM | > 100
C/C(=C\c1ccn(-c2ccc(N)cc2)n1)[C@@H]1C[C@@H]2O[C@]2(C)CCC[C@H](C)[C@H](O)[C@@H](C)C(=O)C(C)(C)[C@@H](O)CC(=O)O1 | > 50 µM | > 50 | 0.0382 µM | > 50 | 0.0348 µM | > 50 | 0.0273 µM | > 50 |  | > 50 µM | 0.0486 µM | > 50 | 0.0356 µM | 0.342 µM | 0.0196 µM | > 50 | 0.0297 µM | > 50 | 0.0248 µM | > 50
CSC(=S)NNC(=O)c1ccncc1 |  | 52.6 |  | 38.1 |  | > 100 |  | 33.6 |  | 60.8 µM |  | 55.6 |  | 31.4 µM |  | > 100 |  | 28.3 |  | 23.6
COc1cccc2c1c1nc3cc(C)c(C)cc3nc1n2CCN(C)C | 1.63 µM | 6.45 | 1.42 µM | 3.65 | 1.99 µM | 12 | 1.04 µM | 8.7 | 1.13 | 6.73 µM | 0.498 µM |  | 2.39 µM | 8.65 µM | 1.83 µM | 9.43 | 1.64 µM | 11.2 | 0.805 µM | 11.3
[N-]=[N+]=CC(=O)OCC(N)C(=O)O (configuration not stated) | 3.53 µM | > 100 | 0.556 µM | > 100 | 0.711 µM | 2.86 | 0.485 µM | > 100 | > 100 | > 100 µM | 0.638 µM | > 100 | 0.512 µM | > 100 µM | 0.58 µM | > 100 | 0.631 µM | > 100 | 0.649 µM | > 100
COc1cc2c(cc1OC)[C@@]1(C)C(=O)c3cc4c(cc3[C@H]1N(C)C2=O)OCO4 | 44.1 µM | > 100 | 74.7 µM | > 100 | 62.9 µM | > 100 | 48.4 µM | > 100 | 28.8 | > 100 µM | 33.3 µM | > 100 | 10.4 µM | 85.6 µM | > 100 µM | > 100 | > 100 µM | > 100 | 65.4 µM | > 100
COc1cnc2c(c1)C(=O)c1c-2n(CCCN2CCN(C)CC2)c(=O)c2cc(Cl)ccc12 | 12.3 µM | 36.2 | 11.3 µM | 26.8 | 4.17 µM | > 100 | 0.779 µM | 18.9 | 4.68 | 29.8 µM | 0.345 µM | 5.33 | 6.32 µM | 52.1 µM | 3.37 µM | 20.5 | 4.08 µM | 27.9 | 0.299 µM | 12.8
COc1ccc2c(c1)Cc1c-2c(NN)nc2ccccc12 | 64 µM | > 100 | 28.4 µM | > 100 | 33.6 µM | > 100 | 21.6 µM | 78.8 | 22.8 | 71.6 µM | 27.3 µM | > 100 | 20.2 µM | 58.5 µM | 13.8 µM | > 100 | 25.5 µM | > 100 | 21.1 µM | > 100
COC(=O)Nc1nc2ccc(Oc3ccc(NC(=O)Nc4cccc(Cl)c4)cc3)cc2[nH]1 | 2.46 µM | 24.3 | 7.98 µM | > 25 | 2.02 µM | 8.87 | 1.42 µM | 6.6 | 0.853 | 5.47 µM | 2.35 µM | 18.8 | 0.543 µM | 4.07 µM | 0.147 µM | 3.8 | 0.815 µM | > 25 | 0.975 µM | 9.85
CO[C@H]1CC[C@@]2(C)C(=CC[C@H]3[C@@H]4C[C@H](O)C[C@@]4(C)CC[C@@H]32)C1 | 13.8 µM | 27.8 | 11.6 µM | 27.2 | 4.42 µM | 19.6 | 6.17 µM | 24.5 | 1.38 | 18.1 µM | 4.92 µM | 30.6 | 3.96 µM | 15.5 µM | 4.5 µM | 15.8 | 5.04 µM | 23.2 | 3.38 µM | 15
Clc1ccc2nc(CCSCCc3nc4ccc(Cl)cc4[nH]3)[nH]c2c1 |  | 41.8 |  | 31.7 |  | 24.9 |  | 40.4 |  | 30.6 µM |  | 18.1 |  | 26.5 µM |  | 29.7 |  | 26.5 |  | 27
O=C1c2ccccc2C(=O)c2nc(-c3ccccc3)c(-c3ccccc3)nc21 |  | > 31.6 |  | > 100 |  | > 84.2 |  | > 56.1 |  | > 100 µM |  | > 100 |  | > 100 µM |  | > 100 |  | > 100 |  | > 100
Cc1ccc2sc3c(NCCCNCCO)nc4ccccc4c3c(=O)c2c1 | 1.78 µM | 3.68 | 1.64 µM | 3.32 | 1.78 µM | 3.63 | 1.49 µM | 2.94 | 1.28 | 3.78 µM | 1.81 µM | 3.55 | 1.66 µM | 3.43 µM | 1.73 µM | 3.21 | 1.48 µM | 2.92 | 1.62 µM | 3.13
C=C[C@]1(C)C=C2C(=O)[C@@]3(O)OC(=O)[C@@]4(CCCC(C)(C)[C@H]34)[C@@]2(O)CC1 | 5.14 µM | 26.1 | 2.14 µM | 3.81 | 2.38 µM | 7.26 | 1.72 µM | 3.24 | 0.282 | 1.62 µM | 1.74 µM | 7.53 | 0.57 µM | 2.03 µM | 3.42 µM | 13.8 | 0.79 µM | 3.05 | 0.955 µM | 3.36
CCOC(=O)c1c(Cl)c2c(n1Cc1cc(OC)cc(OC)c1)-c1oncc1CCC2 | 6.84 µM | > 100 | 15.4 µM | > 100 | 0.419 µM | > 100 | 0.709 µM | > 100 | 0.335 | 28.6 µM | 0.512 µM | > 100 | 0.0304 µM | 0.195 µM | 0.346 µM | > 100 | 0.387 µM | > 100 | 0.344 µM | > 100
Nc1nccc(Nc2ccc(S(N)(=O)=O)cc2)n1 |  | > 100 |  | > 100 |  | > 100 |  | > 100 |  | > 100 µM |  | > 100 |  | > 100 µM |  | > 100 |  | > 100 |  | > 100
CC(C)(O)[C@H]1[C@@H]2OC(=O)[C@H]1[C@]1(O)C[C@H]3OC34C(=O)O[C@H]2[C@@]41C (some centres not stated) (tested in a mixture with another compound) |  | > 100 |  | > 100 |  | > 100 |  | > 100 |  | > 100 µM |  | > 100 |  | > 100 µM |  | > 100 |  | > 100 |  | > 100
Cc1ccc(C(=O)NC2CCCCC2)cc1-c1ccc(C(=O)NCC2CC2)cc1 | > 25 µM | > 25 | > 25 µM | > 25 | 12.4 µM | > 25 | > 25 µM | > 25 | 6.02 | > 25 µM | > 25 µM | > 25 | 13.5 µM | > 25 µM | > 22.5 µM | > 25 | > 25 µM | > 25 | > 25 µM | > 25
O=C(/C=C/c1ccccc1)CCC1C(=O)NC(=O)NC1=O |  | > 100 |  | > 100 |  | > 100 |  | > 100 |  | > 100 µM |  | > 100 |  | > 100 µM |  | > 100 |  | > 100 |  | > 100
O=C(O)CCC1CCC(c2cc(F)ccc2F)(S(=O)(=O)c2ccc(Cl)cc2)CC1 (configuration not stated) | 41.2 µM and > 100 µM | > 100 | 38 µM and > 75.4 µM | > 100 | 44.4 µM and > 100 µM | > 100 | 40.3 µM and > 66.5 µM | > 100 |  | 95.1 µM and > 100 µM | 41.2 µM and > 59.7 µM | > 100 | 20.7 µM and > 100 µM | 79.7 µM and > 100 µM | 34.3 µM and 85.5 µM | > 100 | 33.7 µM and 47.8 µM | > 100 | 32.2 µM and > 100 µM | > 100
COC(=O)N/N=C(\C)C(CN1CCOCC1)C(c1ccccc1)c1cc2ccccc2oc1=O (configuration not stated) |  | > 100 |  | > 100 |  | > 100 |  | > 100 |  | > 100 µM |  | > 100 |  | > 100 µM |  | > 100 |  | > 100 |  | > 100
